Measurements: US20260165323A1, “USE OF STROBILURIN TYPE COMPOUNDS FOR COMBATING PHYTOPATHOGENIC FUNGI CONTAINING AN AMINO ACID SUBSTITUTION F129L IN THE MITOCHONDRIAL CYTOCHROME B PROTEIN CONFERRING RESISTANCE TO QO […]” (priority 2022, published 2026)

Tests used:
[1] = tested on: Colletotrichum orbiculare (COLLLA); experiment: Use example 8: microtest, growth of Colletotrichum orbiculare (COLLLA); type: cell-based; settings: relative growth vs compound-free control (100%); for Growth at 2 ppm (%) COLLLA Use ex. 8: 7 days after inoculation; for Growth (%) COLLLA Use Ex. 8: 125 ppm; for Growth (%) COLLLA Use Ex. 8 / Growth (%) COLLLA Use ex. 8: 7 days; for Growth (%) COLLLA Use ex. 8: 8 ppm
Description: (§1) The active compounds were formulated separately as a stock solution having a concentration of 10000 ppm in dimethyl sulfoxide. The stock solutions were mixed according to the ratio, pipetted onto a micro titer plate (MTP) and diluted with water to the stated concentrations. A spore suspension of one of the following fungal plant pathogens in aqueous bio malt solution • was then added for the respective use example: • Use example 5: Alternaria solani (ALTESO) • Use example 6: Botrytis cinerea (BOTRCI) • Use example 7: Cercospora sojina (CERCSO) • Use example 8: Colletotrichum orbiculare (COLLLA) • Use example 9: Leptosphaeria nodorum (LEPTNO) • Use example 10: Drechslera teres (PYRNTE) containing the amino acid substitution F129L in the mitochondrial cytochrome b protein conferring resistance to Qo inhibitors • Use example 11: Sclerotinia sclerotiorum (SCLESC), solute with ultrasonic from a filter membrane
(§2) The plates were placed in a water vapor-saturated chamber at a temperature of 18° C. Using an absorption photometer, the MTPs were measured at 405 nm 7 days after the inoculation.
(§3) The measured parameters were compared to the growth of the active compound-free control variant (100%) and the fungus-free blank value to determine the relative growth in % of the pathogens in the respective active compounds.

[2] = tested on: Puccinia recondita; experiment: Use Example 3: curative control of brown rust on wheat (PUCCRT K4); type: in vivo; settings: % diseased leaf area
In short: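 Wheat seedlings inoculated with Puccinia recondita spores, held 24 h at 95–99% RH, 20–24° C in dark, then 3 days in greenhouse before spraying to run-off (curative). Compound in acetone/DMSO–Wettol–water. After 5–7 further days at 20–24° C, 65–70% RH, % diseased leaf area scored visually.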

[3] = tested on: Puccinia recondita; experiment: Use Example 4: preventative control of brown rust on wheat (PUCCRT P7); type: in vivo; settings: inoculated seven days after spraying, % diseased leaf area
In short: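 First two leaves of potted wheat seedlings sprayed to run-off with compound in acetone/DMSO–emulsifier–water, then inoculated with Puccinia recondita spores seven days later. Plants held 24 h dark at 95–99% RH and 20–24 °C, then 9–11 days in greenhouse; diseased leaf area (%) scored visually.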

[4] = tested on: Phakopsora pachyrhizi containing the amino acid substitution F129L in the mitochondrial cytochrome b protein; experiment: Use Example 2: protective control of soybean rust on soybeans (PHAKPA P6); type: in vivo; settings: inoculated six days after spraying, % diseased leaf area
In short: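 Compound in acetone and/or DMSO with Wettol (99:1), diluted with water, was sprayed to run-off on potted soybean seedlings. After six days at 23–27°C and 60–80% RH, plants were inoculated with a Qo-resistant F129L strain and held 24 h at about 95% RH. Percent diseased leaf area was scored visually after up to 14 days.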

[5] = tested on: Phakopsora pachyrhizi containing the amino acid substitution F129L in the mitochondrial cytochrome b protein; experiment: Use Example 1: protective control of soybean rust on soybeans (PHAKPA P2); type: in vivo; settings: inoculated 2 days after spraying, % diseased leaf area
In short: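 Soybean seedling leaves sprayed to run-off with compound in acetone/DMSO–Wettol–water at the stated concentration, kept 2 days at 23-27° C, then inoculated with Qo-inhibitor-resistant F129L P. pachyrhizi. After 24 h at ~95% RH, 20-24° C, and up to 14 days in greenhouse, % diseased leaf area scored visually.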

[6] = tested on: Leptosphaeria nodorum (LEPTNO); experiment: Use example 9: microtest, growth of Leptosphaeria nodorum (LEPTNO); type: cell-based; settings: relative growth vs compound-free control (100%), 7 days; for Growth at 125 ppm (%) LEPTNO Use ex. 9: Table 10; for Growth (%) LEPTNO Use Ex. 9: 125 ppm, Table 9
Description: as §1, §2, §3

[7] = tested on: Cercospora sojina (CERCSO); experiment: Use example 7: microtest, growth of Cercospora sojina (CERCSO); type: cell-based; settings: relative growth vs compound-free control (100%); for Growth (%) CERCSO Use Ex. 7 / Growth (%) CERCSO Use ex. 7: 125 ppm, 7 days; for Growth (%) CERCSO Use Ex. 7: Table 9; for Growth at 8 ppm (%) CERCSO Use ex. 7: 7 days after inoculation; for Growth (%) CERCSO Use ex. 7: Table 12
Description: as §1, §2, §3

[8] = tested on: Drechslera teres (PYRNTE) containing the amino acid substitution F129L in the mitochondrial cytochrome b protein; experiment: Use example 10: microtest, growth of Drechslera teres (PYRNTE) F129L; type: cell-based; settings: relative growth vs compound-free control (100%), 7 days; for Growth (%) PYRNTE F129L Use ex. 10: 125 ppm
Description: as §1, §2, §3

[9] = tested on: Botrytis cinerea (BOTRCI); experiment: Use example 6: microtest, growth of Botrytis cinerea (BOTRCI); type: cell-based; settings: 8 ppm; relative growth vs compound-free control (100%), 7 days after inoculation
Description: as §1, §2, §3

Row | Compound | % PUCCRT Disease level K4 at 4 ppm [2] | % PUCCRT Disease level K4 at 16 ppm [2] | % PUCCRT Disease level P7 at 4 ppm [3] | % PUCCRT Disease level P7 at 16 ppm [3] | % PHAKPA (F129L) Disease level P6 at 4 ppm [4] | % PHAKPA (F129L) Disease level P6 at 16 ppm [4] | % PHAKPA (F129L) Disease level P2 at 4 ppm [5] | % PHAKPA (F129L) Disease level P2 at 16 ppm [5] | other results
1 | CNC(=O)/C(=N/OC)c1cccc(C)c1CO/N=C(\COC)c1ccccc1 [reference compound] | – | – | – | – | – | – | – | – | Growth at 2 ppm (%) COLLLA Use ex. 8 [1]: 44%
2 | CO/C=C(/C(=O)OC)c1cccc(F)c1CO/N=C(\COC)c1ccc(F)cc1 [compound 17] | 53% | 6% | 37% | 8% | 17% | 2% | 8% | 0% | Growth at 125 ppm (%) LEPTNO Use ex. 9 [6]: 0%
3 | CO/C=C(/C(=O)OC)c1cccc(Br)c1CO/N=C(\COC)c1c(F)cc(F)cc1F [compound 58] | 27% | 15% | 57% | 30% | 0% | 0% | 2% | 0% | Growth (%) CERCSO Use Ex. 7 [7]: 63%; Growth (%) COLLLA Use Ex. 8 [1]: 26%; Growth (%) LEPTNO Use Ex. 9 [6]: 47%
4 | CO/C=C(/C(=O)OC)c1cccc(Br)c1CO/N=C(\COC)c1ccc(F)cc1 [compound 10, Methyl-(E)-2-[3-bromo-2-[[(Z)-[1-(4-fluorophenyl)-2-methoxy-ethylidene]amino]oxymethyl]phenyl]-3-methoxy-prop-2-enoate] | 13% | 2% | 10% | 2% | 8% | 0% | 4% | 0% | Growth at 125 ppm (%) LEPTNO Use ex. 9 [6]: 3%
5 | CO/C=C(/C(=O)OC)c1cccc(C)c1CO/N=C(\COC)c1c(F)cc(F)cc1F [I.2-A-43860, reference compound] | – | – | – | – | – | – | – | – | Growth (%) CERCSO Use Ex. 7 [7]: 90%; Growth (%) COLLLA Use Ex. 8 [1]: 43%; Growth (%) LEPTNO Use Ex. 9 [6]: 64%
6 | CNC(=O)/C(=N/OC)c1cccc(C)c1CO/N=C(\COC)c1c(F)cc(F)cc1F [I.3-A-43860, reference compound] | – | – | – | – | – | – | – | – | Growth (%) PYRNTE F129L Use ex. 10 ([8]; Table 13): 36%; Growth (%) COLLLA Use ex. 8 [1]: 62%
7 | CNC(=O)/C(=N/OC)c1cccc(Cl)c1CO/N=C(\COC)c1cccc(C(F)(F)F)c1 [compound 56] | 8% | 0% | 2% | 2% | 23% | 0% | 15% | 0% | Growth at 8 ppm (%) CERCSO Use ex. 7 [7]: 13%; Growth at 8 ppm (%) BOTRCI Use Ex. 6 [9]: 64%
8 | CNC(=O)/C(=N/OC)c1cccc(C)c1CO/N=C(\COC)c1ccc(Cl)cc1 [I.3-A-83, reference compound] | – | – | – | – | – | – | – | – | Growth (%) PYRNTE F129L Use ex. 10 ([8]; Table 12): 26%; Growth (%) CERCSO Use ex. 7 [7]: 89%
9 | CNC(=O)/C(=N/OC)c1cccc(Cl)c1CO/N=C(\COC)c1ccccc1 [compound 4, (2E)-2-[3-chloro-2-[[(Z)-(2-methoxy-1-phenyl-ethylidene)amino]oxymethyl]phenyl]-2-methoxyimino-N-methyl-acetamide] | 77% | 9% | 17% | 4% | – | – | – | – | Growth at 2 ppm (%) COLLLA Use ex. 8 [1]: 29%
10 | CNC(=O)/C(=N/OC)c1cccc(Cl)c1CO/N=C(\COC)c1c(F)cc(F)cc1F [compound 31] | 40% | 7% | 17% | 4% | 3% | 0% | 0% | 0% | Growth (%) PYRNTE F129L Use ex. 10 ([8]; Table 13): 21%; Growth (%) COLLLA Use ex. 8 [1]: 34%
11 | CO/C=C(/C(=O)OC)c1cccc(Cl)c1CO/N=C(\COC)c1cccc(F)c1 [compound 14, Methyl-(E)-2-[3-chloro-2-[[(Z)-[1-(3-fluorophenyl)-2-methoxy-ethylidene]amino]oxymethyl]phenyl]-3-methoxy-prop-2-enoate] | 22% | 1% | 13% | 2% | 2% | 0% | 3% | 0% | Growth at 8 ppm (%) PYRNTE F129L Use ex. 10 ([8]; 8 ppm): 3%
12 | CNC(=O)/C(=N/OC)c1cccc(Cl)c1CO/N=C(\COC)c1ccc(Cl)cc1 [compound 36] | 82% | 2% | 6% | 0% | 57% | 10% | 65% | 3% | Growth (%) PYRNTE F129L Use ex. 10 ([8]; Table 12): 2%; Growth (%) CERCSO Use ex. 7 [7]: 12%
13 | CNC(=O)/C(=N/OC)c1cccc(C)c1CO/N=C(\COC)c1cccc(C(F)(F)F)c1 [reference compound] | – | – | – | – | – | – | – | – | Growth at 8 ppm (%) CERCSO Use ex. 7 [7]: 28%; Growth at 8 ppm (%) BOTRCI Use Ex. 6 [9]: 78%
14 | COC/C(=N\OCc1c(C)cccc1/C(=N\OC)C(=O)OC)c1ccc(F)cc1 [I.2-A-82, reference compound] | – | – | – | – | – | – | – | – | Growth at 125 ppm (%) LEPTNO Use ex. 9 [6]: 19%
15 | CO/C=C(/C(=O)OC)c1cccc(Cl)c1CO/N=C(\COC)c1c(F)cc(F)cc1F [compound 12, Methyl-(E)-2-[3-chloro-2-[[(Z)-[2-methoxy-1-(2,4,6-trifluorophenyl)ethylidene]amino]oxymethyl]phenyl]-3-methoxy-prop-2-enoate] | 23% | 18% | 17% | 9% | 4% | 0% | 2% | 0% | Growth (%) COLLLA Use Ex. 8 [1]: 20%
